Assay results reported in patent publication US7384478B2, “Apparatus and process for preparing crystalline particles” (Glaxo Group Limited, priority 2002, dated 2008).
Marks after values point to notes of the source that are not given here.

Experiment: Particle sizing with the Malvern laser diffraction particle sizer
Format: physicochemical
Conditions: for Malvern size data D10 / Malvern size data D50 / Malvern size data D90: crystalline fluticasone propionate particles, average of 2 results except values marked **
Description: The drug substance (fluticasone propionate, FP) (1 wt) was dissolved in acetone (15-20 vols, according to experiment) by heating to 56° C. and then allowed to cool to between 25 and 35° C. A first peristaltic pump was connected to the said FP/acetone solution and a second peristaltic pump was connected to a water reservoir wherein the water was in the temperature range of about 3-30° C. Prior to starting the pumps the mixing chamber was filled with a solution of acetone and water (the ratio of each being the same as the relative pumping rates from the two reservoirs). By doing this, the relative concentrations of the water to acetone remained constant throughout the crystallisation. The temperature of the mixing chamber was maintained in the range about −10 to +30° C. by passing tempered heat transfer fluid through the vessel jacket. The FP/acetone solution inlet and water inlet were arranged coaxially or in parallel (as shown in FIGS. 1a/1b/2a/2b) and the tip of the ultrasound probe was positioned so that it is just above the inlets. Stirring with the aid of a non-grinding magnetic stirrer bar or overhead stirrer was initiated as is the ultrasound at intensity 2-4 W/cm^2 (with respect to the tip face area of the probe). A comparison experiment with the ultrasound probe in place but zero power was performed. Re-crystallisations were carried out from various mixtures of acetone and water (by altering the flow rates of each) as dictated by the parameters set out in the experimental design. Finally the pumps were started simultaneously. A suspension of the crystals in the re-crystallisation mixture was allowed to exit via the overflow directly on to a filter bed. The slurry is isolated and washed with water and dried in vacuo between about 20 to 50° C.
Comparison experiments were performed using the apparatus with diametrically opposite input feeds described in WO 00/38811 in which save for the input feed geometry and the specific parameters given in the table below, and the vessel dimensions given below, other parameters Were similar to those used for the experiments using the present invention.
Samples were sized using the Malvern laser diffraction particle sizer and the results analysed using multi-dimensional model fitting software (such as Design Expert 5).

In the case of `CCC(=O)O[C@]1(C(=O)SCF)[C@H](C)C[C@H]2[C@@H]3C[C@H](F)C4=CC(=O)C=C[C@]4(C)[C@@]3(F)[C@@H](O)C[C@@]21C` [Run 3, fluticasone propionate], the “Malvern size data D10” value (listed as 3) is reported as 0.47 micron, the “Malvern size data D50” value (listed as 3) is reported as 1.78 micron and the “Malvern size data D90” value (listed as 3) is reported as 4.39 micron.

With `CCC(=O)O[C@]1(C(=O)SCF)[C@H](C)C[C@H]2[C@@H]3C[C@H](F)C4=CC(=O)C=C[C@]4(C)[C@@]3(F)[C@@H](O)C[C@@]21C` [Run 5, fluticasone propionate] the “Malvern size data D10” value (listed as 5) was 0.86 micron, the “Malvern size data D50” value (listed as 5) was 2.98 micron and the “Malvern size data D90” value (listed as 5) was 6.92 micron.

With `CCC(=O)O[C@]1(C(=O)SCF)[C@H](C)C[C@H]2[C@@H]3C[C@H](F)C4=CC(=O)C=C[C@]4(C)[C@@]3(F)[C@@H](O)C[C@@]21C` [standard micronised FP, fluticasone propionate] the “Malvern size data D10” value was 0.60 micron, the “Malvern size data D50” value was 1.62 micron and the “Malvern size data D90” value was 3.20 micron.

For `CCC(=O)O[C@]1(C(=O)SCF)[C@H](C)C[C@H]2[C@@H]3C[C@H](F)C4=CC(=O)C=C[C@]4(C)[C@@]3(F)[C@@H](O)C[C@@]21C` [Run 4, fluticasone propionate], the “Malvern size data D10” value (listed as 4) was 0.43** micron, the “Malvern size data D50” value (listed as 4) was 1.51** micron and the “Malvern size data D90” value (listed as 4) was 3.75** micron. For the same molecule, the “particle size distribution, comparison in words” value (versus micronised material or prior art configurations C and D) was “very good match”.

With `CCC(=O)O[C@]1(C(=O)SCF)[C@H](C)C[C@H]2[C@@H]3C[C@H](F)C4=CC(=O)C=C[C@]4(C)[C@@]3(F)[C@@H](O)C[C@@]21C` [Run 1, fluticasone propionate] the “Malvern size data D10” value (listed as 1) was 0.60 micron, the “Malvern size data D50” value (listed as 1) was 2.25 micron and the “Malvern size data D90” value (listed as 1) was 6.29 micron.

In the case of `CCC(=O)O[C@]1(C(=O)SCF)[C@H](C)C[C@H]2[C@@H]3C[C@H](F)C4=CC(=O)C=C[C@]4(C)[C@@]3(F)[C@@H](O)C[C@@]21C` [Run 8, fluticasone propionate], the “Malvern size data D10” value (listed as 8) is reported as 1.88 micron, the “Malvern size data D50” value (listed as 8) is reported as 5.13 micron and the “Malvern size data D90” value (listed as 8) is reported as 11.86 micron.

For `CCC(=O)O[C@]1(C(=O)SCF)[C@H](C)C[C@H]2[C@@H]3C[C@H](F)C4=CC(=O)C=C[C@]4(C)[C@@]3(F)[C@@H](O)C[C@@]21C` [Run 7, fluticasone propionate], the “Malvern size data D10” value (listed as 7) was 1.15 micron, the “Malvern size data D50” value (listed as 7) was 4.19 micron and the “Malvern size data D90” value (listed as 7) was 10.00 micron.

For `CCC(=O)O[C@]1(C(=O)SCF)[C@H](C)C[C@H]2[C@@H]3C[C@H](F)C4=CC(=O)C=C[C@]4(C)[C@@]3(F)[C@@H](O)C[C@@]21C` [Run 6, fluticasone propionate], the “Malvern size data D10” value (listed as 6) was 0.53 micron, the “Malvern size data D50” value (listed as 6) was 2.06 micron and the “Malvern size data D90” value (listed as 6) was 4.93 micron.

For `CCC(=O)O[C@]1(C(=O)SCF)[C@H](C)C[C@H]2[C@@H]3C[C@H](F)C4=CC(=O)C=C[C@]4(C)[C@@]3(F)[C@@H](O)C[C@@]21C` [Run 2, fluticasone propionate], the “Malvern size data D10” value (listed as 2) was 0.52 micron, the “Malvern size data D50” value (listed as 2) was 2.08 micron and the “Malvern size data D90” value (listed as 2) was 5.10 micron.
